Experimental data from US9029399B2, “17α-hydroxylase/C17,20-lyase inhibitors” (Novartis AG, priority 2011, dated 2015).

Assays:
[1] = target: Human CYP17 enzyme (Cytochrome P450, 17-20 lyase) (Homo sapiens (Human), UniProt P05093); assay: CYP17 lyase assay, recombinant human CYP17 enzyme, 17-α-hydroxy pregnenolone [21-3H] substrate; format: biochemical; details: for IC50: recombinant human CYP17, first value of Human/Rat cell, read-out: Lyase IC 50 Human
From the text: 1) Cvtochrome P450, 17-20 Lyase (CYP17-Lyase) Assay Development Using Recombinant Human CYP17 Enzyme and 17-α-Hydroxy Pregnenolone [21-3H] as the Substrate
Cytochrome P450, 17-α-Hydroxylase, 17-20 lyase (CYP17) is a multi functional enzyme that plays a key role in the biosynthesis of steroid hormones. […] In the hydroxylation reaction, it converts progesterone and pregnenolone to the corresponding hydroxylated products 17-α-hydroxy progesterone and 17-α-hydroxy pregnenolone. In the lyase reaction, it catalyzes the conversion of these hydroxylated substrates to Androstenedione and Dehydroepiandrosterone (DHEA) respectively. In the Cyp17 lyase assay described here, the conversion of 17-α-hydroxy pregnenolone to Dehydroepiandrosterone and acetic acid is being monitored.
The conversion of 17-α-hydroxy pregnenolone to Dehydroepiandrosterone is accompanied by the release of acetic acid. In the Cyp17 lyase assay, 17-α-hydroxy pregnenolone labeled with tritium (3H) at position 21 is used as the substrate. Chloroform extraction removes the radioactive steroids and acetic acid is taken into aqueous layer. The tritiated acetic acid released in the assay thus extracted is quantified to determine the enzyme activity.
Human Cyp 17 gene was cloned and expressed in Adenoviral expression system in A549 cell lines. The purified cell membrane preparations were used as the source for Human CYP17 enzyme. Total protein concentration: 8 mg/mL.
For routine screening, the assay was set up with 16 μg of enzyme in 50 μL reaction volume. 17α-hydroxy pregnenolone [21-3H] was added to a final concentration of […] NADPH is used at a final concentration of 4.2 mM. Total reaction volume was made up to 50 μL with 50 mM Phosphate buffer pH 7.5. The reaction mixture was incubated at room temperature for 90 minutes with gentle shaking. The reaction was stopped by the addition of 100 μl, of buffer. 500 μl, of 5% freshly prepared activated charcoal was added to the solution and mixed well by vortexing. The samples were centrifuged at 17568×g for 5 minutes. (14000 rpm). The supernatant was carefully transferred to fresh tube and 1.3 mL of scintillation fluid was added, mixed by vortexing.
The measurements were carried out in 2.0 mL Eppendorf™ tubes. Each tube was counted for 1 minute. The amount of tritiated acetic acid released is proportional to the lyase activity. Percent lyase activity in presence of inhibitor was calculated using the formula given below.
[formula] Sample: Enzyme reaction in presence of inhibitor. Positive control: Enzyme reaction without inhibitor but containing DMSO at 1% final concentration. Blank—Contains all reagents except enzyme. % Inhibition=100%−% Lyase activity
For IC50 determination, the % inhibition was plotted as a function of inhibitor concentration. The data was fitted to sigmoidal equation using Graphpad Prism® software IV to generate IC50 values.

[2] = target: Rat CYP 17 Lyase (Rattus norvegicus (Rat), UniProt P11715); assay: Rat CYP17 lyase model, rat testes microsomes; format: biochemical; details: substrate 0.5 μM, second value of Human/Rat cell, read-out: Lyase IC 50 Rat
Sequence of Rat CYP 17 Lyase (P11715 whole entry): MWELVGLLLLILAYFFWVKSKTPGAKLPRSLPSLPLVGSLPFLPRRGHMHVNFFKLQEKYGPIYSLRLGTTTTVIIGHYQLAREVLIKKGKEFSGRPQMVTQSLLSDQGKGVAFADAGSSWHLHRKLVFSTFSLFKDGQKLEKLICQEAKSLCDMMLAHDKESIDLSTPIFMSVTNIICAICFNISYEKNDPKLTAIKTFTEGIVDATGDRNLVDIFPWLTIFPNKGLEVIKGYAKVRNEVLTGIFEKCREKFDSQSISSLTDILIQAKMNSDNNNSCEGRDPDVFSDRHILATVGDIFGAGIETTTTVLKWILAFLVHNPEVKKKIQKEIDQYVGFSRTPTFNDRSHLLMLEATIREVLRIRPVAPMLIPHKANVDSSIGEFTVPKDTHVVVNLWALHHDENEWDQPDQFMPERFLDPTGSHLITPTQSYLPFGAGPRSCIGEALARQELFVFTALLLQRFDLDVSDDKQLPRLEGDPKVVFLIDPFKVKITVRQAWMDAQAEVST
Protocol: For the Rat CYP 17 Lyase Model:
The same procedure described above was used but using rat testes microsomes as the source and with a substrate concentration of 0.5 μM.

Sequence of Human CYP17 enzyme (Cytochrome P450, 17-20 lyase) (P05093 whole entry): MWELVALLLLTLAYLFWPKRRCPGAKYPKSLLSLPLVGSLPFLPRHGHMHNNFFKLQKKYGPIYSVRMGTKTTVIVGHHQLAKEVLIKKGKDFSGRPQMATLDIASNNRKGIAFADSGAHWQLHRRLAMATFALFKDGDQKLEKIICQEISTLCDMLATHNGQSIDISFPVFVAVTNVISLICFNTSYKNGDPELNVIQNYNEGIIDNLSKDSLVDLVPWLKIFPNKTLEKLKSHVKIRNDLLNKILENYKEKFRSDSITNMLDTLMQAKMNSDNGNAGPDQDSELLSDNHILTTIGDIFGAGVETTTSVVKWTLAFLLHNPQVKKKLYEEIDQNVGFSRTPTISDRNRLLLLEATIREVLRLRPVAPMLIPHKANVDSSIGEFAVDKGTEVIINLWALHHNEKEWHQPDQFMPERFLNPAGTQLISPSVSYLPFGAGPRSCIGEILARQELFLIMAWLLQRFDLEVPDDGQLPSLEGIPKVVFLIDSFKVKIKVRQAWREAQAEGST

SMILES	IC50 [1]	IC50 [2]	inhibition at 10 µM [1]
O=C1N(c2ccnc(Cl)c2)CCN1c1cnccc1C1CC1 [Example 1A, 1-(2-chloropyridin-4-yl)-3-(4-cyclopropylpyridin-3-yl)imidazolidin-2-one]	8 nM	2.7 nM	
O=C1N(c2ccnc(C(F)(F)F)c2)CCN1c1cnccc1C1CC1 [Example 2A, 1-(4-cyclopropylpyridin-3-yl)-3-(2-(trifluoromethyl)pyridin-4-yl)imidazolidin-2-one]	9 nM	1.1 nM	
COc1cc(N2CCN(c3cnccc3C3CC3)C2=O)ccn1 [Example 9A, 1-(4-cyclopropylpyridin-3-yl)-3-(2-methoxypyridin-4-yl)imidazolidin-2-one]	42 nM	4.6 nM	
O=C1N(c2cnccc2C2CC2)[C@@H]2C[C@@H]2N1c1ccnc(C(F)(F)F)c1 [Example 32A-II, (1R,5S)-2-(4-cyclopropylpyridin-3-yl)-4-(2-(trifluoromethyl)pyridin-4-yl)-2,4-diazabicyclo[3.1.0]hexan-3-one]	6.9 nM	3 nM	
O=C1N(c2ccnc(C3CC3)c2)CCN1c1cnccc1C1CC1 [Example 39A, 1-(4-cyclopropylpyridin-3-yl)-3-(2-cyclopropylpyridin-4-yl)imidazolidin-2-one]	12 nM		
COc1cc(N2CCN(c3cnccc3C3CC3)C2=O)ncn1 [Example 40A, 1-(4-cyclopropylpyridin-3-yl)-3-(6-methoxypyrimidin-4-yl)imidazolidin-2-one]	84 nM		
Cc1cc(N2CCN(c3cnccc3C3CC3)C2=O)ncn1 [Example 41A, 1-(4-cyclopropylpyridin-3-yl)-3-(6-methylpyrimidin-4-yl)imidazolidin-2-one]	70 nM		
Cc1cc(N2CCN(c3cnccc3C3CC3)C2=O)ncc1F [Example 42A, 1-(4-cyclopropylpyridin-3-yl)-3-(5-fluoro-4-methylpyridin-2-yl)imidazolidin-2-one]	22 nM		
O=C1N(c2ccnc(C3CC3)n2)CCN1c1cnccc1C1CC1 [Example 43A, 1-(4-cyclopropylpyridin-3-yl)-3-(2-cyclopropylpyrimidin-4-yl)imidazolidin-2-one]	36 nM		
Cc1nccc(N2CCN(c3cnccc3C3CC3)C2=O)n1 [Example 44A, 1-(4-cyclopropylpyridin-3-yl)-3-(2-methylpyrimidin-4-yl)imidazolidin-2-one]	397 nM		
O=C1N(c2cc(Cl)nc(C(F)(F)F)n2)CCN1c1cnccc1C1CC1 [Example 45A, 1-(6-chloro-2-(trifluoromethyl)pyrimidin-4-yl)-3-(4-cyclopropylpyridin-3-yl) imidazolidin-2-one]	10 nM		
O=C1N(c2cc(Cl)nc(Cl)c2)CCN1c1cnccc1C1CC1 [Example 46A, 1-(4-cyclopropylpyridin-3-yl)-3-(2,6-dichloropyridin-4-yl)imidazolidin-2-one]	1.9 nM		
O=C1N(c2cc(Cl)nc(C3CC3)c2)CCN1c1cnccc1C1CC1 [Example 47A, 1-(2-chloro-6-cyclopropylpyridin-4-yl)-3-(4-cyclopropylpyridin-3-yl)imidazolidin-2-one]	5.2 nM		
O=C1N(c2cc(C3CC3)nc(C(F)(F)F)c2)CCN1c1cnccc1C1CC1 [Example 48A, 1-(2-cyclopropyl-6-(trifluoromethyl)pyridin-4-yl)-3-(4-cyclopropylpyridin-3-yl)imidazolidin-2-one]	4.75 nM		
O=C1N(c2cc(C(F)(F)F)nc(C(F)(F)F)c2)CCN1c1cnccc1C1CC1 [Example 49A, 1-(2,6-bis(trifluoromethyl)pyridin-4-yl)-3-(4-cyclopropylpyridin-3-yl)imidazolidin-2-one]	6 nM		
O=C1N(c2ccnc(C(F)(F)F)c2)CCN1c1c(C2CC2)ccnc1O [Example 50A, 1-(4-cyclopropyl-2-hydroxypyridin-3-yl)-3-(2-(trifluoromethyl)pyridin-4-yl)imidazolidin-2-one]			51%
